Test results: PubChem BioAssay (NCI)
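The compound was tested at five concentrations on cells cultured in 96-well plates, with a 48-hour exposure period. Abbreviation: GI50, concentration required for 50% inhibition of growth. At the TGI there is no net growth.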

Assays:
Assay in all cases: growth of human tumour cells (NCI), 48 h
COLO 205 colon = test system: COLO 205 colon
SN12C renal = test system: SN12C renal
ACHN renal = test system: ACHN renal
NCI-H522 lung = test system: NCI-H522 lung
XF 498 CNS = test system: XF 498 CNS
OVCAR-8 ovarian = test system: OVCAR-8 ovarian
MALME-3M melanoma = test system: MALME-3M melanoma
DMS 114 small cell lung = test system: DMS 114 small cell lung
HOP-18 NSCLC = test system: HOP-18 NSCLC
DMS 273 small cell lung = test system: DMS 273 small cell lung
SNB-75 CNS = test system: SNB-75 CNS
LXFL 529 NSCLC = test system: LXFL 529 NSCLC

Structure (SMILES)	TGI (COLO 205 colon) [µM]	TGI (SN12C renal) [µM]	TGI (ACHN renal) [µM]	TGI (NCI-H522 lung) [µM]	TGI (XF 498 CNS) [µM]	TGI (OVCAR-8 ovarian) [µM]	TGI (MALME-3M melanoma) [µM]	TGI (DMS 114 small cell lung) [µM]	TGI (HOP-18 NSCLC) [µM]	TGI (DMS 273 small cell lung) [µM]	TGI (SNB-75 CNS) [µM]	TGI (LXFL 529 NSCLC) [µM]	GI50 (NCI-H522 lung) [µM]	GI50 (DMS 273 small cell lung) [µM]
O=C(Cc1ccccc1)NN1C(=O)C(Cl)C1c1ccccc1O (configuration not stated)	> 100	> 100	> 100	> 100	> 100	> 100	86.1	46.5	61.2	> 100	> 100	> 100	–	–
Cc1cc(NCCCCCCCNc2cc(C)nc3cc([N+](=O)[O-])ccc23)c2ccc([N+](=O)[O-])cc2n1	27	13.4	28.5	2.78	> 48.1	3.85	> 71.1	3.28	31.1	15.5	40.9	3.14	–	–
CCCc1ccc(NCc2cc(OC)c(OC)c(OC)c2)cc1	–	53.2	> 100	34.3	52.8	> 100	50.4	29.8	> 100	31.8	94.8	40.5	17.3	16.2
